In patent US20100190809A1, “COMBINATION FORMULATIONS” (priority 2007, published 2010):

Assay: Tablet dissolution in 0.01M HCl+1% sodium laurylsulfate, 50 rpm
Type: physicochemical
Method: The tablets were measured on dissolution in a medium of 0.01M HCl+1% sodium laurylsulfate (SLS), 50 rpm. The results reported in the following tables are the percentages of release drug substance. Exp 1, exp 2, etc. refer to a first, a second, etc. experiment under the same conditions.
Two coating trials were performed using the tablet core samples with a compression force of 1030 daN and 1266 daN. The coating material was polyvinyl alcohol (PVA). The film coated tablets were measured on dissolution in medium 0.01 M HCl+1% SLS, 50 rpm.

Row | Compound | impact of the coating on the release (PVA film coated tablets) | release out of the coated tablets compared to the cores (PVA film coated tablets) | influence of the compression force on dissolution (TMC125 compared with TMC114)
1 | CC(C)CN(C[C@@H](O)[C@H](Cc1ccccc1)NC(=O)O[C@H]1CO[C@H]2OCC[C@H]21)S(=O)(=O)c1ccc(N)cc1 [TMC114, (1S,2R,3R,3aS,6aR)-{3-[(4-aminobenzenesulfonyl)isobutyl-amino]-1-benzyl-2-hydroxypropyl}carbamic acid hexahydrofuro[2,3-b]furan-3-yl ester monoethanolate] | only a minor impact |  | 
2 | Cc1cc(C#N)cc(C)c1Oc1nc(Nc2ccc(C#N)cc2)nc(N)c1Br [TMC125, 4-[[6-amino-5-bromo-2-[(4-cyanophenyl)amino]-4-pyrimidinyl]oxy]-3,5-dimethylbenzonitrile] |  | somewhat faster | more influenced
